Measured values: ChEMBL document CHEMBL4715856 (Bioorg Med Chem, 2020)
In brackets after ≈: the same amount, converted by molar mass.

Key:
[1] = Inhibition of SARS-CoV papain-like protease using Ub-7-amino-4-trifluoro-methylcoumarin as substrate incubated for 3 mins by fluorescence method; parameters: species or system Severe acute respiratory syndrome-related coronavirus
[2] = Inhibition of MERS-CoV papain-like protease using Ub-7-amino-4-trifluoro-methylcoumarin as substrate incubated for 3 mins by fluorescence method; parameters: species or system Middle East respiratory syndrome-related coronavirus
[3] = Inhibition of SARS-CoV 3C-like protease by FRET assay; parameters: species or system Severe acute respiratory syndrome-related coronavirus
[4] = Inhibition of SARS-CoV2 3C-like protease (3264 to 3569 residues) expressed in Escherichia coli BL21(DE3) BL21-Gold using Dabcyl-KTSAVLQSGFRKM-E(Edans)-NH2 as substrate preincubated for 10 min followed by substrate addition by FRET assay; parameters: species or system Severe acute respiratory syndrome coronavirus 2
[5] = Inhibition of MERS-CoV 3C-like protease; parameters: species or system Middle East respiratory syndrome-related coronavirus
[6] = Inhibition of SARS-CoV nucleocapsid protein expressed in Escherichia coli BL21 (DE3) incubated for 1 hr by quantum dots-conjugated oligonucleotide biochip-platform based confocal laser scanning microscopic analysis; parameters: species or system Severe acute respiratory syndrome-related coronavirus
[7] = Inhibition of SARS-CoV(BJ-01) 3C-like protease infected in African green monkey Vero cells assessed as reduction in viral titer incubated for 48 hrs by crystal violet staining based plaque reduction assay; type: cell-based; conditions: Severe acute respiratory syndrome-related coronavirus, BJ-01, Vero
[8] = Inhibition of His-tagged SARS-CoV HKU39849 3C-like protease expressed in Escherichia coli BL21 assessed as reduction in cleavage activity using H2N-TSAVLQSGFRKW-COOH as substrate preincubated for 30 mins followed by substrate addition by HPLC-based assay; parameters: species or system Severe acute respiratory syndrome-related coronavirus
[9] = Inhibition of SARS-CoV N-terminal His-tagged 3C-like protease expressed in Escherichia coli GJ1158 using 2-aminobenzoyl-SVTLQSG-Tyr(NO2)-R as substrate by quenched-FRET assay; parameters: species or system Severe acute respiratory syndrome-related coronavirus
[10] = Inhibition of SARS-CoV C-terminal 6His-tagged papain-like protease expressed in Escherichia coli BL21(DE3) using ubiquitin-AMC as substrate preincubated for 10 mins followed by substrate addition by luminescence spectrometric method; parameters: species or system Severe acute respiratory syndrome-related coronavirus
[11] = Inhibition of MERS-CoV NSP13 helicase measured after 5 min by FRET-based assay; parameters: species or system Middle East respiratory syndrome-related coronavirus
[12] = Inhibition of SARS-CoV 3C-like protease (9970 to 10887 residues) expressed in Escherichia coli BL21(DE3) CodonPlus-RIL cells using DABCYL-KTSAVLQSGFRKME-EDANS as substrate by FRET assay; parameters: species or system Severe acute respiratory syndrome-related coronavirus
[13] = Inhibition of SARS-CoV papain-like protease (723 to 1041 residues) expressed in Escherichia coli BL21(DE3) using Arg-Leu-Arg-Gly-Gly-AMC as substrate by fluorescence method; parameters: species or system Severe acute respiratory syndrome-related coronavirus
[14] = tested on: guanine-N7 methyltransferase (human versus SARS coronavirus WHU); experiment: in vitro
[15] = biological target: T1, mRNA cap guanine-N(7) methyltransferase (Homo sapiens, UniProt O43148)
[16] = biological target: T1, mRNA cap guanine-N(7) methyltransferase; remark: listed apart in the source
[17] = tested on: guanine-N7 methyltransferase (human versus SARS-CoV); experiment: in vitro
[18] = Inhibition of SARS-CoV 3C-like protease using abz-SVTLQSG-Tyr(NO2)R as substrate by spectrofluorimetric assay; parameters: species or system Severe acute respiratory syndrome-related coronavirus
[19] = Inhibition of SARS-CoV 3C-like protease expressed in Escherichia coli BL21(DE3) using DABCYL-KTSAVLQSGFRKME-EDANS as substrate preincubated for 1 hr followed by substrate addition and measured after 16 hrs by fluorescence method; parameters: species or system Severe acute respiratory syndrome-related coronavirus
[20] = (§1) Inhibition of SARS-CoV spike protein expressed in Escherichia coli BL21(DE3)pLysS/human ACE2 using 2,2'-azinobis(3-ethylbenzthiazoline-sulfonic acid) preincubated for 2 hrs with biotinylated S protein followed by incubation with ACE2 for 1 hr and subsequent substrate addition by competitive biotinylated ELISA
[21] = as §1, with “acid) at 10 nmol” for “acid)”, “ELISA relative to control” for “ELISA”; conditions: time 3.0 hrs
[22] = Inhibition of SARS-CoV 3C-like protease expressed in Escherichia coli BL21(DE3) using Dabcyl-KTSAVLQSGFRKME-Edans as substrate by fluorometric assay; parameters: species or system Severe acute respiratory syndrome-related coronavirus
[23] = Inhibition of MERS-CoV (KOR/KNIH/002_05_2015) 3C-like protease expressed in Escherichia coli BL21(DE3) using Dabcyl-KTSAVLQSGFRKME-Edans as substrate by fluorometric assay; parameters: species or system Middle East respiratory syndrome-related coronavirus
[24] = Inhibition of envelope protein in HCoV-229E infected in human MRC-5 cells assessed as reduction in viral replication incubated for 6 days by crystal violet staining based plaque reduction assay; type: cell-based; conditions: Human coronavirus 229E, MRC5, 144 h
[25] = Inhibition of envelope protein in Murine hepatitis virus A59 infected in mouse L929 cells assessed as reduction in viral replication incubated for 24 hrs by crystal violet staining based plaque reduction assay; type: cell-based; conditions: Murine coronavirus, A59, L929, 24 h
[26] = Inhibition of SARS-CoV NSP13 helicase in presence of DT20Cy3 and ReleaseBHQ by FRET-based assay; parameters: species or system Severe acute respiratory syndrome-related coronavirus
[27] = Inhibition of SARS-CoV NSP13 helicase using fluorescein and black hole quencher labelled dsDNA as substrate measured after 10 min by FRET-based assay; parameters: species or system Severe acute respiratory syndrome-related coronavirus
[28] = Inhibition of SARS-CoV wild type NSP13 helicase using Cy3-labeled 31/18-mer as substrate measured after 10 min by FRET-based assay; parameters: species or system Severe acute respiratory syndrome-related coronavirus
[29] = Inhibition of SARS-CoV wild type 3C-like protease using MCA-AVLQSGFR-Lys(Dnp)-Lys-NH2 s substrate by fluorescence method; parameters: species or system Severe acute respiratory syndrome-related coronavirus
[30] = Inhibition of HcoV-EMC 3C-like protease; parameters: species or system unidentified human coronavirus
[31] = Inhibition of SARS-CoV C-terminal (GPH6 residues)-fused wild type 3C-like protease expressed in Escherichia coli BL21(DE3) cells using MCA-AVLQSGFR-Lys(Dnp)-Lys-NH2 s substrate by fluorescence method; parameters: species or system Severe acute respiratory syndrome-related coronavirus
[32] = Inhibition of 3C-like protease in SARS-CoV2 infected in African green monkey vero cells assessed as antiviral activity incubated for 1 hr by crystal violet staining based plaque reduction assay; type: cell-based; conditions: Severe acute respiratory syndrome coronavirus 2, Vero

T1 sequence (O43148 whole entry): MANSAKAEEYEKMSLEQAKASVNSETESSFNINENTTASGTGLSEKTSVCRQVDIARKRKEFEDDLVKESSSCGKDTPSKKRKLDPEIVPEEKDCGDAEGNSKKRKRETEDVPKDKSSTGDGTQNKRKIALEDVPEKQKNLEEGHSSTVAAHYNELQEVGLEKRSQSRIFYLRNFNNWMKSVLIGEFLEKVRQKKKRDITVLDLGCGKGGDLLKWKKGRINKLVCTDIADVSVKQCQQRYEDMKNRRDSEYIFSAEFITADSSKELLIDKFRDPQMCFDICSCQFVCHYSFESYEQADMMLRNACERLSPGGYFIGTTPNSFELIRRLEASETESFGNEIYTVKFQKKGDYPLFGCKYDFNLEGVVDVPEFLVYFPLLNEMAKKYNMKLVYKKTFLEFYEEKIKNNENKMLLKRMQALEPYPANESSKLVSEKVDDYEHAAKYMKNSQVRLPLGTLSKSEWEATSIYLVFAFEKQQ

## CCN(CC)C(=S)SSC(=S)N(CC)CC
[1]
  IC50: 14.2 µM
[2]
  IC50: 22.7 µM

## CC(C)(C)OC(=O)Nc1cccn([C@@H](CC2CC2)C(=O)N[C@@H](C[C@@H]2CCCC2=O)C(=O)C(=O)NCc2ccccc2)c1=O
[3]
  IC50: 0.9 µM
[4]
  IC50: 0.67 µM
[5]
  IC50: 0.58 µM

## O=C(O[C@@H]1Cc2c(O)cc(O)cc2O[C@H]1c1cc(O)c(O)c(O)c1)c1cc(O)c(O)c(O)c1 [GALLOCATECHIN GALLATE]
[6]
  IC50: 5 ng/mL (≈ 0.0109 µM)

## CC1=C(C(=O)OCCc2ccccc2)C(c2ccccc2[N+](=O)[O-])C2=C(CCCC2=O)N1 (stereo not drawn)
[7]
  IC50: 8.9 µM
[8]
  IC50: 2.5 µM

## O=C(Oc1cncc(Cl)c1)c1cccs1
[9]
  IC50: 0.5 µM

## Nc1nc2[nH]cnc2c(=S)[nH]1 [THIOGUANINE]
[10]
  IC50: 5 µM

## Sc1nnc(NNc2ccc(I)cc2)n1NC1C=CCC1 (stereo not drawn)
[11]
  IC50: 2.5 µM

## O=C(O[C@@H]1Cc2c(O)cc(O)cc2O[C@H]1c1ccc(O)c(O)c1)c1cc(O)c(O)c(O)c1 [(-)-CATECHINGALLATE]
[6]
  IC50: 5 ng/mL (≈ 0.0113 µM)

## C=C(C)C(Cc1c(OC)ccc(C(=O)/C=C/c2ccc(O)cc2)c1O)C(=O)O (stereo not drawn)
[12]
  IC50: 11.4 µM
[13]
  IC50: 1.2 µM

## Nc1ncnc2c1ncn2[C@@H]1O[C@H](C[C@@H](N)CC[C@H](N)C(=O)O)[C@@H](O)[C@H]1O [SINEFUNGIN]
[14]
  selectivity ratio: 0.32
[15]
  IC50: < 0.05 µM
[16]
  IC50: 0.00055 µM
[17]
  selectivity ratio: < 2.63

## O=C(Cc1cncc(Br)c1)c1ccc(-c2ccc(Cl)cc2)o1
[18]
  IC50: 13 µM

## C[C@@H]1O[C@@H](O[C@H]2[C@@H](Oc3cc(O)c4c(=O)cc(-c5ccc(O)cc5)oc4c3)O[C@H](CO)[C@@H](O)[C@@H]2O)[C@H](O)[C@H](O)[C@H]1O
[19]
  IC50: 27.5 µM

## H-SQKSIVAYTM-NH2
[20]
  IC50: 0.0018 µM
[21]
  inhibition: 90%

## O=C[C@H](C[C@@H]1CCNC1=O)NC(=O)[C@H](Cc1ccccc1)NC(=O)/C=C/c1ccc(Cl)cc1F
[22]
  IC50: 0.2 µM
[23]
  IC50: 1.7 µM

## N=C(N)NC(=O)c1nc(Cl)c(N2CCCCCC2)nc1N [N,N-HEXAMETHYLENEAMILORIDE]
[24]
  EC50: 1.34 µM
[25]
  EC50: 3.91 µM

## Cc1ncc(CO)c(C23OC4(O)CC(O)(CC(O)(C4)O2)O3)c1O
[26]
  IC50: 3 µM

## C=CCn1c(S)nnc1CSc1ccccc1[N+](=O)[O-]
[27]
  IC50: 6 µM
[28]
  IC50: 5.9 µM

## Cc1cc(C(=O)N[C@@H](C)C(=O)N[C@H](C(=O)N[C@@H](CC(C)C)C(=O)N[C@H](/C=C/C(=O)OCc2ccccc2)C[C@@H]2CCNC2=O)C(C)C)no1
[29]
  Ki: 1.9 µM
[30]
  IC50: 0.28 µM
[31]
  Ki: 2.3 µM
[32]
  EC50: 16.8 µM
